Like-named read-outs stand apart in the source and are kept apart here. Numbered stars: 1 amine (or outer) side, 2 acyl side, 3 side chain; on linkers, the order of the positions; unused ones are H or OH. Bridge positions count the residues as written; N and C are the ends. Square brackets hold non-standard residues; d marks the D form. Peptide text beside a SMILES is read from it. * marks the point of attachment. ξ: configuration not given here. X12 = O=C(O)CN1CCOCCN(CC(=O)O)CCN(CC(=O)*)CCOCCN(CC(=O)O)CC1; DOTA = O=C(O)CN1CCN(CC(=O)O)CCN(CC(=O)*)CCN(CC(=O)O)CC1; Phe(4-Cl) = N[C@@H](Cc1ccc(Cl)cc1)C(=O)O; Arg(Me2s) = CN=C(NC)NCCC[C@H](N)C(=O)O; Arg(Me) = CNC(=N)NCCC[C@H](N)C(=O)O; X1 = O=C(CC1CCN([*:1])CC1)[*:2]; Cit = NC(=O)NCCC[C@H](N)C(=O)O; Lys(Me) = CNCCCC[C@H](N)C(=O)O; NMeL = CN[C@@H](CC(C)C)C(=O)O; Tle = CC(C)(C)[C@H](N)C(=O)O; ξD = NC(CC(=O)O)C(=O)O; Aib = CC(C)(N)C(=O)O; Guanidino = N=C(N)N* Where only a bound is given, the exact number is not on record here.

Data on 7 compounds can be found in patent US20260083865A1, “PROSTATE SPECIFIC MEMBRANE ANTIGEN (PSMA) LIGANDS AND USE THEREOF” (priority 2022, published 2026).

In assay [1] the target is T1, PSMA-expressing C4-2 cells (Homo sapiens, UniProt Q04609).
T1 construct: PSMA-expressing C4-2 cells (ATCC, Cat. No. CRL-3314) were cultured in RPMI-1640; host or cells: C4-2 cells
The assay is described as follows: FACS binding assay (competition with 50 nM PSM-0183). In short, it runs like this:
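C4-2 cells were incubated 1 h at 4 °C with 50 nM AF488-labelled peptide PSM-0183 plus increasing test compound concentrations, then washed twice in ice-cold buffer. Median fluorescence in the AF488 channel was read by flow cytometry. IC50/pIC50 was derived by 4PL fitting of MFI versus concentration.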

Assay [2] concerns the target T2, Fc-fusion protein of human PSMA (hPSMA-Fc) (Homo sapiens, UniProt Q04609).
T2 construct: purchased Acro Biosystems PSA-H5264
The assay is described as follows: Surface plasmon resonance assay (Biacore T200, single cycle kinetic). It is filed as binding. In short, it runs like this:
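hPSMA-Fc was captured (~1000 RU) on an Fc-binding-peptide CM5 chip, and compounds were run in single cycle kinetic mode at 25° C in HBST with 0.1% DMSO. Double-blank-corrected sensorgrams were fitted to a 1:1 Langmuir model to give KD, reported as pKD.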
For orientation: SPR reads the build-up and loss of mass on a sensor chip optically.

The mark [3] stands for this setting: pIC50 category of FACS binding, C4-2 cells, read-out: pIC50 [C4-2] CAT (converted).
Setting [4] is: pKD category for PSMA SPR activity assay, hPSMA-Fc, 25° C., read-out: pKD CAT (converted).

T2 sequence (Q04609 44-750 limits assumed): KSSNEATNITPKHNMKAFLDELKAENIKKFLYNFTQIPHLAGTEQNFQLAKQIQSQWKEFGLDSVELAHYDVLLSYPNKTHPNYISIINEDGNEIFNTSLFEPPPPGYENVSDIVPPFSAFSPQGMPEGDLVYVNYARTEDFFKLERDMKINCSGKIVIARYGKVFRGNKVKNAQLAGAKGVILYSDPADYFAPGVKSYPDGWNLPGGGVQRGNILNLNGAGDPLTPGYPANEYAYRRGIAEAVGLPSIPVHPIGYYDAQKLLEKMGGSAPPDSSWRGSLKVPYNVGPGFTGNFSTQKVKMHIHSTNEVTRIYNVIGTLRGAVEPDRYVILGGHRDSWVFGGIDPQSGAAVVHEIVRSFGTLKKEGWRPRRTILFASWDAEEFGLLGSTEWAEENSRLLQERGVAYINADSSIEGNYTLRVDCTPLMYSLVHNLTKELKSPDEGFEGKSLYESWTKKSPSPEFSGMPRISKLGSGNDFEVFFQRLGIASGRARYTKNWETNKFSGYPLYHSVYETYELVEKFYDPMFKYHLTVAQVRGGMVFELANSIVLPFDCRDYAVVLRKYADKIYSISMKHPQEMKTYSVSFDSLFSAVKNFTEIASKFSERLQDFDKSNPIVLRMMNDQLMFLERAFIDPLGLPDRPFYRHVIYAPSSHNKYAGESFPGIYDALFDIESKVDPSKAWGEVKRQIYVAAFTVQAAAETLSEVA
T1 sequence (Q04609 whole entry): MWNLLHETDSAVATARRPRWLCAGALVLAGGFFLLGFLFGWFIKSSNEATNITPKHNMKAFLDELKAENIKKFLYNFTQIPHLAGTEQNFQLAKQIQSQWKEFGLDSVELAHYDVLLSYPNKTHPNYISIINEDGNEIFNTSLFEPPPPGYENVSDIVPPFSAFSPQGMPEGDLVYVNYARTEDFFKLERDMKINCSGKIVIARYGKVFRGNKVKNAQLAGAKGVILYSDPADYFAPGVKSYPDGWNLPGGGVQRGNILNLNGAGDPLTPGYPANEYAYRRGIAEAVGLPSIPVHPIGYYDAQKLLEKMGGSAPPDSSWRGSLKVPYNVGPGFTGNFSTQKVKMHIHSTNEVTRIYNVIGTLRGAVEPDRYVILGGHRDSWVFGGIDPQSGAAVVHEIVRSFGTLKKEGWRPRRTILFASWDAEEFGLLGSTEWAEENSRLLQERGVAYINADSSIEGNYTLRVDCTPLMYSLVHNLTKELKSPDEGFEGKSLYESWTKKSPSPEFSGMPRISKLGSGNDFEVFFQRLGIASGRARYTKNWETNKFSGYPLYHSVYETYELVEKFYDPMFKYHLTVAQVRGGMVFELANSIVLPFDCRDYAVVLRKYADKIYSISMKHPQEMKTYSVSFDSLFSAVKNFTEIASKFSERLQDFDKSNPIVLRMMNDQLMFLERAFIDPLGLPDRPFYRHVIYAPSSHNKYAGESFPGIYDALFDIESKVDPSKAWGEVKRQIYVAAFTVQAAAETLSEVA

Consider `CC(=O)N[C@H](C(=O)NC(C)(C)C(=O)N[C@@H](Cc1ccc(Cl)cc1)C(=O)N[C@H]1CSSC[C@@H](C(=O)N[C@H](C(=O)N[C@H](C(=O)O)[C@@H](C)O)C(C)(C)C)NC(=O)[C@H](CC(N)=O)NC(=O)C(C)(C)NC(=O)[C@H](CCCNC(=N)N)NC(=O)[C@H](CCCCN)NC1=O)[C@@H](C)O` [PSM-0493, Ac-Thr-Aib-Pcf-[Cys-Lys-Arg-Aib-Asn-Cys]-Tle-Thr-OH] (Ac-T[Aib][Phe(4-Cl)]CKR[Aib]NC[Tle]T-OH; disulfide 4-9), for which the IC50 in assay [1] (setting [3]) was under 200 nM. Further, in assay [2] (setting [4]), the Kd was under 12.6 nM.
On to `CC(=O)NC(C)(C)C(=O)N[C@@H](Cc1ccc(Cl)cc1)C(=O)N[C@H]1CSSC[C@@H](C(=O)N[C@H](C(=O)N[C@H](C(=O)N2CCC(CC(=O)N[C@H](CCCCNC(=O)CN3CCN(CC(=O)O)CCN(CC(=O)O)CCN(CC(=O)O)CC3)C(N)=O)CC2)[C@@H](C)O)C(C)(C)C)NC(=O)[C@H](CC(N)=O)NC(=O)C(C)(C)NC(=O)[C@H](CCC(=O)NC(=N)N)NC(=O)[C@H](CCCCN)NC1=O` [PSM-0494, Ac-Aib-Pcf-[Cys-Lys-Gln(Gu)-Aib-Asn-Cys]-Tle-Thr-Cmp-lys(DOTA)-NH2] (Ac-[Aib][Phe(4-Cl)]CKE(Guanidino)[Aib]NC[Tle]T[X1][dK](DOTA)-NH2; disulfide 3-8), for which the IC50 in assay [1] was under 200 nM. The Kd in assay [2] lay within 12.6 to 126 nM.
On to `CNCCCC[C@@H]1NC(=O)[C@@H](NC(=O)[C@H](Cc2ccc(Cl)cc2)NC(=O)C(C)(C)NC(=O)[C@@H](NC(=O)CC2CCN(C(=O)CN3CCOCCN(CC(=O)O)CCN(CC(=O)O)CCOCCN(CC(=O)O)CC3)CC2)[C@@H](C)O)CSSC[C@@H](C(=O)N[C@H](C(=O)N[C@H](C(N)=O)[C@@H](C)O)C(C)(C)C)NC(=O)[C@H](CC(N)=O)NC(=O)C(C)(C)NC(=O)[C@H](CCCNC(=N)NC)NC1=O` [PSM-0495, Crown-Cmp-Thr-Aib-Pcf-[Cys-Lys(Me)-Arg(Me)-Aib-Asn-Cys]-Tle-Thr-NH2] (X12-[X1]T[Aib][Phe(4-Cl)]C[Lys(Me)][Arg(Me)][Aib]NC[Tle]T-NH2; disulfide 5-10), for which, in assay [1] (setting [3]), the IC50 was under 200 nM. For the same compound, the Kd in assay [2] (setting [4]) is under 12.6 nM.
The like results for `CC(=O)N[C@H](C(=O)NC(C)(C)C(=O)N[C@@H](Cc1ccc(Cl)cc1)C(=O)N[C@H]1CSSC[C@@H](C(=O)N[C@H](C(=O)N[C@H](C(N)=O)[C@@H](C)O)C(C)(C)C)NC(=O)[C@H](CCC(=O)O)NC(=O)C(C)(C)NC(=O)[C@H](CCCNC(N)=O)NC(=O)[C@H](CCCCN)NC1=O)[C@@H](C)O` [PSM-0496, Ac-Thr-Aib-Pcf-[Cys-Lys-Cit-Aib-Glu-Cys]-Tle-Thr-NH2] (Ac-T[Aib][Phe(4-Cl)]CK[Cit][Aib]EC[Tle]T-NH2; disulfide 4-9) were, in that order, under 200 nM and 12.6 to 126 nM.
In the same order, the values of `CC(C)C[C@@H](C(=O)N[C@H](C(N)=O)[C@@H](C)O)N(C)C(=O)[C@@H]1CSSC[C@H](NC(=O)[C@H](Cc2ccc(Cl)cc2)NC(=O)C(C)(C)NC(=O)[C@@H](NC(=O)CC2CCN(C(=O)CN3CCN(CC(=O)O)CCN(CC(=O)O)CCN(CC(=O)O)CC3)CC2)[C@@H](C)O)C(=O)N[C@@H](CCCCN)C(=O)N[C@@H](CCCNC(=N)N)C(=O)NC(C)(C)C(=O)N[C@@H](CC(N)=O)C(=O)N1` [PSM-0497, DOTA-Cmp-Thr-Aib-Pcf-[Cys-Lys-Arg-Aib-Asn-Cys]-Nml-Thr-NH2] ({DOTA}-[X1]T[Aib][Phe(4-Cl)]CKR[Aib]NC[NMeL]T-NH2; disulfide 5-10) are 200 to 1260 nM and 126 to 501 nM.
For `CSCC[C@H](N)C(=O)N[C@H](C(=O)N[C@@H](C)C(=O)N[C@@H](Cc1ccccc1)C(=O)N[C@H]1CSSC[C@@H](C(=O)N[C@@H](CC(C)C)C(=O)N[C@H](C(=O)NC(CC(=O)O)C(=O)NCC(=O)N[C@@H](CO)C(N)=O)[C@@H](C)O)NC(=O)[C@H](CC(N)=O)NC(=O)[C@H](C)NC(=O)[C@H](CCCNC(=N)N)NC(=O)[C@H](CCCCN)NC1=O)[C@@H](C)O` (stereo partly drawn) [PSM-0498, H-Met-Thr-Ala-Phe-[Cys-Lys-Arg-Ala-Asn-Cys]-Lou-Thr-Asp-Gly-Ser-NH2] (H-MTAFCKRANCLT[ξD]GS-NH2; disulfide 5-10), the IC50 in assay [1] (setting [3]) was under 200 nM. The Kd in assay [2] (setting [4]) was under 12.6 nM.
In the same order, the values of `C/N=C(/NC)NCCC[C@@H]1NC(=O)[C@H](CCCCNC)NC(=O)[C@@H](NC(=O)[C@H](Cc2ccc(Cl)cc2)NC(=O)C(C)(C)NC(=O)[C@@H](NC(=O)CC2CCN(C(=O)CN3CCN(CC(=O)O)CCN(CC(=O)O)CCN(CC(=O)O)CC3)CC2)[C@@H](C)O)CSSC[C@@H](C(=O)N[C@H](C(=O)N[C@H](C(N)=O)[C@@H](C)O)C(C)(C)C)NC(=O)[C@H](CC(N)=O)NC(=O)C(C)(C)NC1=O` [PSM-0499, DOTA-Cmp-Thr-Aib-Pcf-[Cys-Lys(Me)-Egd-Aib-Asn-Cys]-Tle-Thr-NH2] ({DOTA}-[X1]T[Aib][Phe(4-Cl)]C[Lys(Me)][Arg(Me2s)][Aib]NC[Tle]T-NH2; disulfide 5-10) are under 200 nM and under 12.6 nM.
